Entries after “also recorded” stand apart in the source; their conditions may differ.
Assays:
[1] = target: T1, RBM39 (Homo sapiens, UniProt Q14498+Q66K64); test: Western blot of RBM39 levels in 293T DCAF15 KO versus DCAF15-reconstituted cells; assay type: cell-based; design: endogenous in cells; host or cells: 293T DCAF15 KO and 293T reconstituted with tagged DCAF15; conditions: 293T cells reconstituted with tagged DCAF15, 10 h treatment
Experimental: (§1) Given the structural similarity to indisulam, it was assayed if the two new test compounds would similarly lead to the degradation of RBM39 in a DCAF15-dependent manner. Towards that end, their effect on RBM39 levels in wildype cells as well as cells deficient for DCAF15 levels was tested. KBM7 (WT or knockout, FIG. 20) as well as 293T cells (DCAF15-HiBit overexpression vs knockout, see FIG. 21) were tested in various conditions of dCEMM.1 and/or dCEMM.2, comparing their effect to indisulam.

[2] = target: T1, RBM39; test: Western blot of RBM39 levels in KBM7 WT versus DCAF15-deficient cells; assay type: cell-based; design: endogenous in cells; conditions: 12 or 16 h treatment
Experimental: as §1

[3] = target: T2, DCAF15 (Homo sapiens, UniProt Q66K64); test: DCAF15 HiBit/LgBit luciferase assay (knock-in or ectopic, live-cell or lytic detection); assay type: cell-based
T2 construct: expressed in transfected cells
T2 sequence (Q66K64 whole entry): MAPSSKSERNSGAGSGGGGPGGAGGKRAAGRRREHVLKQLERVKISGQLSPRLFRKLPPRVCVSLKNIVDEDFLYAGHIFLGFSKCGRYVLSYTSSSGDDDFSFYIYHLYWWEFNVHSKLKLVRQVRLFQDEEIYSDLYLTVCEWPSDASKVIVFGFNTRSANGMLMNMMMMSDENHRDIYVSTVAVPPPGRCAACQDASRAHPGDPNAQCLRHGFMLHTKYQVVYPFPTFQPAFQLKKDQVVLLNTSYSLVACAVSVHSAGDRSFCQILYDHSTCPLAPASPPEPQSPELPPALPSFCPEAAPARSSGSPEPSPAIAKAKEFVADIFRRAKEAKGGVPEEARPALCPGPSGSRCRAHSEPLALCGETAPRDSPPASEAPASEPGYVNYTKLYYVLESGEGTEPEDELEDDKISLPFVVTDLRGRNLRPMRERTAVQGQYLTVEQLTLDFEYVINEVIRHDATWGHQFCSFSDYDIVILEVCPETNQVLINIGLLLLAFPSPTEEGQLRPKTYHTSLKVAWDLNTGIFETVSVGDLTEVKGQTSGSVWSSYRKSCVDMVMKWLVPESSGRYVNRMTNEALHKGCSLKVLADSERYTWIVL
Experimental: Generation of HiBit DCAF15 knock-in cells: HEK293t WT cells at 70-80% confluency were transiently transfected in a 6 well plate with a mix of 3 ug Cas9-sgRNA vector (PX458, addgene #48138, containing sgRNA [NT]), 6 ug of single stranded oligonucleotide donor (ssOND, 20 bp homology flanking the cut site) and 3.6 ug polyethylenimine (FIGS. 10 and 12). 72 hrs post-transfection cells were sorted (SH800 Cell sorter, SONY) for GFP positive cells and recovered for 24 hrs in media. Cells were subsequently seeded at a limiting dilution to generate single clones. Clones were tested after outgrowth for HiBit expression by seeding clonal cells in a black clear bottom 384 well plate and adding Nano-Glo HiBit Lytic buffer (Promega, N3030) reconstituted with recombinant LgBit and Nano-Glo HiBit Lytic Substrate in a 1:1 ratio. HiBit-expressing clones were validated by western blotting and detection of luciferase signal (Promega, N2410) at the correct size. For live cell luciferase detection (FIGS. 11 and 13) 7000 HEK293t cells with a HiBit knock-in at the N-terminus of DCAF15 and stable ectopic expression of LgBit were seeded in 10 uL per well into a black, clear-bottom 384 well plate (Corning, #3764) and incubated over night. 20 uL of media containing 1× Endurazine (Promega, N2570) was added to each well and incubated for 1 hour followed by a baseline luciferase measurement using an EnVision plate reader (Perkin Elmer). Subsequently CSN5i-3 or an equal volume of DMSO was added in 10 uL of media to a final concentration of 500 nM in the assay volume of 40 uL. Luciferase signal was measured hourly for 24 hours. For lytic HiBit detection (FIGS. 11 and 14) 10000 cells were seeded in 10 uL per well into a black clear bottom 384 well plate. After recovery cells were treated by addition of iCSN5-3 or an equal volume of DMSO in 10 uL of media to the cells. After the indicated treatment time cells were lysed by adding 20 uL Nano-Glo HiBit Lytic buffer (Promega, N3030) reconstituted with recombinant LgBit and Nano-Glo HiBit Lytic Substrate. Luciferase signal of each well was normalized to the mean DMSO luciferase signal yielding fold-change over DMSO. Luciferase signal was detected essentially as stated for FIG. 13 with the exception that indisulam (Sigma-Aldrich, SML1225) was added together with CSN5i-3 to cells in 10 uL of media to reach the indicated final concentration (FIG. 15). Luciferase signal of each well and timepoint was normalized to the mean DMSO luciferase signal yielding fold-change over DMSO. […] Luciferase signal was detected essentially as stated for FIG. 15 with the exception that indisulam and dCEMM.1 were added together with iCSN5-3 to cells in the 10 uL treatment to a final concertation of 10 uM (FIG. 17). Luciferase signal of each well and timepoint was normalized to the mean DMSO luciferase signal yielding fold-change over DMSO.

[4] = target: T2, DCAF15; test: High-throughput screen for DCAF15 stabilization in 293T cells expressing DCAF15 HiBit fusion; assay type: cell-based; conditions: 10 uM, 384 well, measurements every 120 minutes
Description: Subsequently, in this context, the E3 ligase substrate receptor (SR) stabilization approach was employed in order to identify novel chemical matter that can bind and chemically re-program the substrate receptor DCAF15. To be able to screen a collection of around 8000 small-molecules, a cellular system was developed that enabled monitoring of DCAF15 levels in live cells in multi-well format. To that end, DCAF15 was first knocked out in 293T cells via CRISPR/Cas9 technology. Then, DCAF15 was stably expressed as a HiBit® fusion protein in these cells. After further transducing these cells with LgBit, this allowed live-cell tracing of DCAF15 levels in 384 well format by measuring bioluminescence (FIG. 18). In brief, cells were seeded at a concentration of 250′000 cells/ml in DMEM+10% FCS+25 mM Hepes. The luciferase substrate Endurazine was added at concentrations recommended by the manufacturer. Small-molecules were added at a concentration of 10 uM, and their effect on DCAF15 levels was assayed by continuous bioluminescent imaging (measurements were taken every 120 minutes). […] The known DCAF15 molecular glue indisulam (see FIG. 7) was used as a positive control. In brief, indisulam is known to act as a DCAF15-dependent molecular glue that binds DCAF15 and induced proximity between DCAF15 and RBM39, leading to the degradation of the latter.

[5] = test system: KBM7 cells; test: Dose-ranging cellular viability assays in neddylation-impaired isogenic KBM7 cells; assay type: cell-based, human
Experimental: KBM7 cells mutated for five core genes were isolated and the underlying CRISPR-induced mutations were truncations leading to full knockouts (CAND1) or hypomorphic alleles (UBE2M, COPS8, COPS7B, GPS1). […] The observable shift in efficacy was at least 10-fold and up to 1000-fold, thus providing excellent signal to noise ratios. In sum, neddylation-impaired (NEDD^mut) cell line can be applied to find novel, yet uncharacterized MGs.
This is further exemplified when said cells are treated with the compound CC-885 (a molecular glue that reprograms the substrate receptor cereblon/CRBN to degrade GSPT1), or the PROTAC® compound THAL-SNS-032 (known to reprogram the substrate receptor cereblon/CRBN to degrade the cyclin dependent kinase 9, CDK9) (both see appended FIG. 22).
However, not for every cullin RING ligase (CRL), modifications of the COP9 signalosome subunit 8 (COPS8) or CAND1 (Cullin-associated NEDD8-dissociated protein 1; a substrate receptor exchange factor) lead to an ensuing destabilization via auto-degradation. An example for this is the substrate receptor VHL(von-Hippel-Lindau), which is part of the CRL2^VHL ligase complex. […] Therefore, measuring differential sensitivity of cells manipulated to contain altered neddylation states to a molecular glue/PROTAC® compound is a feasible surrogate to measure whether the substrate receptor that is reprogrammed by said molecular glue/PROTAC® undergoes destabilization/auto-degradation upon altering the neddylation states.

RBM39 levels (western blot) [1]: destabilization
RBM39 levels (western blot) [2]: destabilization
SMILES: NS(=O)(=O)c1ccc(S(=O)(=O)Nc2cccc3c(Cl)c[nH]c23)cc1 [indisulam]
DCAF15 re-stabilization (luciferase, fold-change over DMSO) ([3]; HiBit knock-in live cells, added together with CSN5i-3 (FIG. 15)): rescues DCAF15 from auto-degradation; also recorded: DCAF15 re-stabilization
DCAF15 re-stabilization (luciferase, fold-change over DMSO) ([3]; live cells, 10 uM, added together with CSN5i-3 (FIG. 17)): rescues DCAF15 from auto-degradation; also recorded: DCAF15 re-stabilization
DCAF15 stabilization (relative luciferase signal over time) [4]: pronounced stabilization of DCAF15 over time; also recorded: identified as positive hits; also recorded: significant stabilization of DCAF15 over time
Cytotoxic activity / sensitivity in COPS8- or CAND1-modified cells ([5]; KBM7 cells modified in COPS8 or CAND1 versus non-modified control): resistance to indisulam in both genetic backgrounds; also recorded: reduced activity
Resistance of mutant cells in cellular viability assay ([5]; KBM7 cells mutated in CAND1, UBE2M, COPS8, COPS7B or GPS1 versus wild type): caused resistance
